Measured values published in ChEMBL document CHEMBL1149135, “Aza-peptide Michael acceptors: a new class of inhibitors specific for caspases and other clan CD cysteine proteases” (J Med Chem, 2004).

What was measured:
[1] = tested on: Clostripain (Clostridium histolyticum); assay: Compound was evaluated for irreversible inhibition of clostripain
[2] = tested on: Lys-gingipain (Porphyromonas gingivalis); assay: Compound was evaluated for irreversible inhibition of Lys-gingipain
Caspase-3 (Homo sapiens) = molecular target: T1, Caspase-3 (Homo sapiens) (UniProt P42574); assay: Compound was evaluated for potent inhibition of caspase-3
T1 sequence (whole entry): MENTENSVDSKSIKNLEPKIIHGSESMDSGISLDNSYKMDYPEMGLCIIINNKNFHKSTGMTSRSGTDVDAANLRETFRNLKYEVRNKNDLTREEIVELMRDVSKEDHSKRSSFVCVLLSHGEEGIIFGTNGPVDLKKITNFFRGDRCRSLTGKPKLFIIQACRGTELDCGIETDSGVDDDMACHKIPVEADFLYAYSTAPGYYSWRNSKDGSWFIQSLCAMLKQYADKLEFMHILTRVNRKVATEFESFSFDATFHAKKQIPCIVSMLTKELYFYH

Caspase-8 (Homo sapiens) = Caspase-8 (Homo sapiens) (UniProt Q14790); assay: Compound was evaluated for potent inhibition of caspase-8
Caspase-6 (Homo sapiens) = molecular target: T2, Caspase-6 (Homo sapiens) (UniProt P55212); assay: Compound was evaluated for potent inhibition of caspase-6
T2 sequence (whole entry): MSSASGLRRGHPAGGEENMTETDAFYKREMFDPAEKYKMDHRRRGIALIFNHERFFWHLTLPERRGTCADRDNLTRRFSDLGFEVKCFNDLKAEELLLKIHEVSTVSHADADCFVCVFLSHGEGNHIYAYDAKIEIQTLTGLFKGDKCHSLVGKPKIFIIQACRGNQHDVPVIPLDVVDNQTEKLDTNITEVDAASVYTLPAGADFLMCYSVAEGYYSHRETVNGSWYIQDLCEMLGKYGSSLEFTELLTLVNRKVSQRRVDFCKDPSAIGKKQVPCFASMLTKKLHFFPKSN

Caspase-8 (Homo sapiens), sequence (Q14790 217-374 limits assumed): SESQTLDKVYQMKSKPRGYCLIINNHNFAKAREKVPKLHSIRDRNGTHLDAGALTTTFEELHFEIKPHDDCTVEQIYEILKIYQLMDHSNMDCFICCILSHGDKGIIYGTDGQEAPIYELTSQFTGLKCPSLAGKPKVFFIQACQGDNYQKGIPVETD
Caspase-8 (Homo sapiens), sequence (Q14790 385-479 limits assumed): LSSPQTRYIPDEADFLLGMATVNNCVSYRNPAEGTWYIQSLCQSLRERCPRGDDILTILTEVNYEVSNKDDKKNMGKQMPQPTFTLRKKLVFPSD

Row | k2 [1] | k2 (Caspase-3 (Homo sapiens)) | k2 (Caspase-8 (Homo sapiens)) | k2 (Caspase-6 (Homo sapiens)) | SMILES | k2 [2]
1 | 40800 M⁻¹ s⁻¹ | – | – | – | CCOC(=O)/C=C/C(=O)N(CCCCN)NC(=O)[C@H](CC(C)C)NC(=O)OCCc1ccccc1 | 3.28e+06 M⁻¹ s⁻¹
2 | – | 1.75e+06 M⁻¹ s⁻¹ | 78200 M⁻¹ s⁻¹ | 3210 M⁻¹ s⁻¹ | CC(C)[C@H](NC(=O)[C@H](CCC(=O)O)NC(=O)[C@H](CC(=O)O)NC(=O)OCc1ccccc1)C(=O)NN(CC(=O)O)C(=O)/C=C/C(=O)NCc1ccccc1 | –
3 | – | 2.64e+06 M⁻¹ s⁻¹ | 90300 M⁻¹ s⁻¹ | 9500 M⁻¹ s⁻¹ | CC(C)[C@H](NC(=O)[C@H](CCC(=O)O)NC(=O)[C@H](CC(=O)O)NC(=O)OCc1ccccc1)C(=O)NN(CC(=O)O)C(=O)/C=C/C(=O)N(C)Cc1ccccc1 | –
4 | – | 5560 M⁻¹ s⁻¹ | 237000 M⁻¹ s⁻¹ | 18700 M⁻¹ s⁻¹ | CCOC(=O)/C=C/C(=O)N(CC(=O)O)NC(=O)[C@@H](NC(=O)[C@H](CCC(=O)O)NC(=O)[C@H](CC(C)C)NC(=O)OCc1ccccc1)[C@@H](C)O | –
5 | 788 M⁻¹ s⁻¹ | – | – | – | CCOC(=O)/C=C/C(=O)N(CCCN)NC(=O)[C@H](CC(C)C)NC(=O)OCCc1ccccc1 | 927000 M⁻¹ s⁻¹
6 | – | 2.13e+06 M⁻¹ s⁻¹ | 273000 M⁻¹ s⁻¹ | 35600 M⁻¹ s⁻¹ | CCOC(=O)/C=C/C(=O)N(CC(=O)O)NC(=O)[C@@H](NC(=O)[C@H](CCC(=O)O)NC(=O)[C@H](CC(=O)O)NC(=O)OCc1ccccc1)C(C)C | –
7 | – | 4600 M⁻¹ s⁻¹ | 98400 M⁻¹ s⁻¹ | 47600 M⁻¹ s⁻¹ | CC(C)C[C@H](NC(=O)OCc1ccccc1)C(=O)N[C@@H](CCC(=O)O)C(=O)N[C@H](C(=O)NN(CC(=O)O)C(=O)/C=C/C(=O)OCc1ccccc1)[C@@H](C)O | –
8 | – | 6000 M⁻¹ s⁻¹ | 169000 M⁻¹ s⁻¹ | 10800 M⁻¹ s⁻¹ | CC(C)C[C@H](NC(=O)OCc1ccccc1)C(=O)N[C@@H](CCC(=O)O)C(=O)N[C@H](C(=O)NN(CC(=O)O)C(=O)/C=C/C(=O)N(C)Cc1ccccc1)[C@@H](C)O | –
9 | – | 1.7e+06 M⁻¹ s⁻¹ | 121000 M⁻¹ s⁻¹ | 8470 M⁻¹ s⁻¹ | CC(C)[C@H](NC(=O)[C@H](CCC(=O)O)NC(=O)[C@H](CC(=O)O)NC(=O)OCc1ccccc1)C(=O)NN(CC(=O)O)C(=O)/C=C/C(=O)OCc1ccccc1 | –
